Source: patent US12533309B2, “Minoxidil adjuvant therapies” (JUPITER WELLNESS, INC., priority 2018, dated 2026)
Values joined by “and” are separate entries in the source; they are usually repeats but may differ in a detail not shown here. Identical values can stand only once.

Tested on: sulfotransferase in hair follicles
Test: In-vitro evaluation of sulfotransferase up-regulation in plucked hair follicles
Format: cell-based, human
Settings: for OD 405 (1)-(3), individual replicates / OD 405 Average: 24 h incubation, patient AB-001; for induction of sulfotransferase activity in plucked hair follicles (conclusion): 24 h
Procedure: The following experiment was conducted to assess the up-regulation of sulfotransferase in hair follicles by candidate compounds know to interact with human nuclear receptors (e.g., PXR and CAR).
Method: For each compound tested, 24 hairs were plucked from a human subject. […] 1 uL of DMSO with no compound was added to control samples. Hairs were allowed to incubate with the candidate compounds for 24 h at room temperature. All samples were run in triplicate, i.e., the data describe in the result section is an average of three samples tested.
After 24 h of incubation hairs were removed from the sample media and washed briefly with clean water. Hairs were trimmed to a length of ˜1 cm and immersed, bulb first, in 100 μL of an assay solution containing 50 mM phosphate buffer (pH8), 5 mM potassium p-nitrophenyl sulfate, 20 μM adenosine 3′,5′-diphosphate, 100 μM minoxidil and 5 mM MgCl2. Hairs were allowed to react with the solution for 24 hours at room temperature. After incubation, hairs were removed and the optical absorbance of the solution at 405 nm was determined with a spectrophotometer using a single scan and 1 cm path length.

[1] = 10 uM, DMSO control average 0.120 (Vitamin K2 run), 0.241 (Genistein run)
[2] = 25 uM, DMSO control average 0.241
[3] = 50 uM, DMSO control average 0.241
[4] = 0.2 uM, DMSO control average 0.195
[5] = 1 uM, DMSO control average 0.195
[6] = 5 uM, DMSO control average 0.120 (Vitamin K2 run), 0.195 (Hyperforin run)
[7] = 20 uM, DMSO control average 0.120

induction of sulfotransferase activity in plucked hair follicles (conclusion)	OD 405 (1)-(3), individual replicates [7]	OD 405 Average [7]	SMILES	OD 405 (1)-(3), individual replicates [1]	OD 405 Average [1]	OD 405 (1)-(3), individual replicates [2]	OD 405 Average [2]	OD 405 (1)-(3), individual replicates [3]	OD 405 Average [3]	OD 405 (1)-(3), individual replicates [4]	OD 405 Average [4]	OD 405 (1)-(3), individual replicates [5]	OD 405 Average [5]	OD 405 (1)-(3), individual replicates [6]	OD 405 Average [6]
induced sulfotransferase activity			O=c1c(-c2ccc(O)cc2)coc2cc(O)cc(O)c12 [Genistein, genistein]	0.186 and 0.235 and 0.134	0.185	0.179 and 0.144 and 0.085	0.136	0.122 and 0.080 and 0.190	0.131						
induced sulfotransferase activity	0.145 and 0.208 and 0.144	0.166	CC(C)=CCC/C(C)=C/CC/C(C)=C/CC/C(C)=C/CC1=C(C)C(=O)c2ccccc2C1=O [Vitamin K2, vitamin K2]	0.339 and 0.138 and 0.180	0.219									0.176 and 0.211 and 0.173	0.187

SMILES	induction of sulfotransferase activity in plucked hair follicles (conclusion)	OD 405 (1)-(3), individual replicates [7]	OD 405 Average [7]	OD 405 (1)-(3), individual replicates [1]	OD 405 Average [1]	OD 405 (1)-(3), individual replicates [2]	OD 405 Average [2]	OD 405 (1)-(3), individual replicates [3]	OD 405 Average [3]	OD 405 (1)-(3), individual replicates [4]	OD 405 Average [4]	OD 405 (1)-(3), individual replicates [5]	OD 405 Average [5]	OD 405 (1)-(3), individual replicates [6]	OD 405 Average [6]
CC(C)=CCC[C@]1(C)[C@@H](CC=C(C)C)C[C@@]2(CC=C(C)C)C(=O)[C@]1(C(=O)C(C)C)C(=O)C(CC=C(C)C)=C2O [Hyperforin, hyperforin]	induced sulfotransferase activity									0.411 and 0.360 and 0.298	0.356	0.475 and 0.402 and 0.369	0.415	0.523 and 0.506 and 0.489	0.506
